{"source": "patent EP0028689A1", "about": "“Antimycotic agents containing acylated triazolyl-gamma-fluoropinacolyl derivatives, and their preparation” (BAYER AG, priority 1979, dated 1981)", "system": "Candida", "experiment": "Antimicrobial in-vivo activity (oral) in mouse candidosis", "conditions": "mice infected i.v. with Candida cells; 100 mg/kg oral one hour before and seven hours after infection; survivors on day 6 p.i.", "protocol": "Versuchsbeschreibung: • Mäuse vom Typ SPF-CF1 wurden intravenös mit 1-2 x 10 logaritmisch wachsenden Candida-Zellen, die in physiologischer Kochsalzlösung suspendiert waren, infiziert. Eine Stunde vor und sieben Stunden nach der Infektion wurden die Tiere mit jeweils 100 mg/kg Körpergewicht der Präparate oral behandelt.\n+++++ = sehr gute Wirkung = ≥ 90% Überlebende am 6.Tag p.i. ++++ = gute Wirkung = ≥30% Überlebende am 6.Tag p.i. +++ = Wirkung = ≥60% Überlebende am 6.Tag p.i. ++ = schwache Wirkung = ≥40% Überlebende am 6.Tag p.i. + = Spur Wirkung k.W.= keine Wirkung"}
{"molecule": "CC(=O)OC(C(Oc1ccc(Cl)cc1C)n1cncn1)C(C)(C)C", "note": "(stereo not shown)", "values": [{"measurement": "Wirkung", "value": "k.W."}]}
